Assay results published in ChEMBL document CHEMBL4507315 (2021).

Experiments:
[1] = target: Tyrosine-protein kinase JAK2 (Homo sapiens) (UniProt O60674); settings: Compound concentration 100.0 nM
[2] = target: Serine/threonine-protein kinase D2 (Homo sapiens) (UniProt Q9BZL6); settings: Compound concentration 100.0 nM
[3] = target: Dual specificity mitogen-activated protein kinase kinase 4 (Homo sapiens) (UniProt P45985); settings: Compound concentration 100.0 nM
[4] = system: Phosphatidylinositol 4,5-bisphosphate 3-kinase catalytic subunit alpha isoform (Homo sapiens), P42336 [M1043I]; settings: Compound concentration 100.0 nM
[5] = target: Cyclin-dependent kinase 13 (Homo sapiens) (UniProt Q14004); settings: Compound concentration 100.0 nM
[6] = target: Cyclin-dependent kinase 15 (Homo sapiens) (UniProt Q96Q40); settings: Compound concentration 100.0 nM
Chain of Cyclin-dependent kinase 15 (Homo sapiens) (Q96Q40 whole entry): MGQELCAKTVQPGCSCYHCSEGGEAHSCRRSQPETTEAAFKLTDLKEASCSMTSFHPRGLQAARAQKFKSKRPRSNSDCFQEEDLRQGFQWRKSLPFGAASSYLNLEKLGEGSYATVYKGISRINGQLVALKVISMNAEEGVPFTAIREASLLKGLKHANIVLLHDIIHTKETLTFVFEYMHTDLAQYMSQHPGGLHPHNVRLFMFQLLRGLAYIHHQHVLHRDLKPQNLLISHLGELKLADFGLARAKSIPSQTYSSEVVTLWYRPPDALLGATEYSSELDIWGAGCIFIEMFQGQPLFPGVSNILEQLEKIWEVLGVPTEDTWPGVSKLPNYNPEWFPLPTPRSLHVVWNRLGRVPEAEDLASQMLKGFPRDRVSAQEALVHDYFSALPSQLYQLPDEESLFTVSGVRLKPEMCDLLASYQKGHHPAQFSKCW

[7] = target: Serine/threonine-protein kinase MRCK alpha (Homo sapiens) (UniProt Q5VT25); settings: Compound concentration 100.0 nM
[8] = target: Ribosomal protein S6 kinase alpha-1 (Homo sapiens) (UniProt Q15418); settings: Compound concentration 100.0 nM
[9] = system: Hepatocyte growth factor receptor (Homo sapiens), P08581 [Y1235D]; settings: Compound concentration 100.0 nM
[10] = target: Tyrosine-protein kinase SYK (Homo sapiens) (UniProt P43405); settings: Compound concentration 100.0 nM
[11] = target: Muscle, skeletal receptor tyrosine-protein kinase (Homo sapiens) (UniProt O15146); settings: Compound concentration 100.0 nM
[12] = target: Hormonally up-regulated neu tumor-associated kinase (Homo sapiens) (UniProt P57058); settings: Compound concentration 100.0 nM
[13] = target: Serine/threonine-protein kinase RIO2 (Homo sapiens) (UniProt Q9BVS4); settings: Compound concentration 100.0 nM
[14] = target: Tyrosine-protein kinase ABL1 (Homo sapiens) (UniProt P00519); settings: Compound concentration 100.0 nM
[15] = target: Phosphatidylinositol 5-phosphate 4-kinase type-2 beta (Homo sapiens) (UniProt P78356); settings: Compound concentration 100.0 nM
[16] = target: Casein kinase I isoform epsilon (Homo sapiens) (UniProt P49674); settings: Compound concentration 100.0 nM
[17] = target: Bone morphogenetic protein receptor type-1B (Homo sapiens) (UniProt O00238); settings: Compound concentration 100.0 nM
Chain of Bone morphogenetic protein receptor type-1B (Homo sapiens) (O00238 whole entry): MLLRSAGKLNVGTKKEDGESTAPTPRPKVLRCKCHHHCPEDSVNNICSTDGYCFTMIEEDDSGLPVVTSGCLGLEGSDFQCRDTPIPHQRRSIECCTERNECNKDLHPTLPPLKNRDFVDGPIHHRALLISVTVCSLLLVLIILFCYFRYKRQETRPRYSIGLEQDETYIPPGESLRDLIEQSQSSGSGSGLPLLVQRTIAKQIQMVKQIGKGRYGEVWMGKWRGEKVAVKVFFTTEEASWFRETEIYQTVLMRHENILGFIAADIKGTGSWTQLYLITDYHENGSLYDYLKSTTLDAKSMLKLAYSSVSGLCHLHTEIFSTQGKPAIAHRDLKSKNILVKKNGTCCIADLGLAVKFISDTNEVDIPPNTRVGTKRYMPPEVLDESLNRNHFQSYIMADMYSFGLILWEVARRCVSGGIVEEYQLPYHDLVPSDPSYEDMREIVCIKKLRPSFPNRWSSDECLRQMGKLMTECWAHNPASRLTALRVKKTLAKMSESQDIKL

[18] = target: Receptor-type tyrosine-protein kinase FLT3 (Homo sapiens) (UniProt P36888); settings: Compound concentration 100.0 nM
[19] = target: Mu-type opioid receptor (Homo sapiens) (UniProt P35372); settings: Compound concentration 10.0 uM
[20] = target: Discoidin domain-containing receptor 2 (Homo sapiens) (UniProt Q16832); settings: Compound concentration 100.0 nM
[21] = target: Mast/stem cell growth factor receptor Kit (Homo sapiens) (UniProt P10721); settings: Compound concentration 100.0 nM
Chain of Mast/stem cell growth factor receptor Kit (Homo sapiens) (P10721 whole entry): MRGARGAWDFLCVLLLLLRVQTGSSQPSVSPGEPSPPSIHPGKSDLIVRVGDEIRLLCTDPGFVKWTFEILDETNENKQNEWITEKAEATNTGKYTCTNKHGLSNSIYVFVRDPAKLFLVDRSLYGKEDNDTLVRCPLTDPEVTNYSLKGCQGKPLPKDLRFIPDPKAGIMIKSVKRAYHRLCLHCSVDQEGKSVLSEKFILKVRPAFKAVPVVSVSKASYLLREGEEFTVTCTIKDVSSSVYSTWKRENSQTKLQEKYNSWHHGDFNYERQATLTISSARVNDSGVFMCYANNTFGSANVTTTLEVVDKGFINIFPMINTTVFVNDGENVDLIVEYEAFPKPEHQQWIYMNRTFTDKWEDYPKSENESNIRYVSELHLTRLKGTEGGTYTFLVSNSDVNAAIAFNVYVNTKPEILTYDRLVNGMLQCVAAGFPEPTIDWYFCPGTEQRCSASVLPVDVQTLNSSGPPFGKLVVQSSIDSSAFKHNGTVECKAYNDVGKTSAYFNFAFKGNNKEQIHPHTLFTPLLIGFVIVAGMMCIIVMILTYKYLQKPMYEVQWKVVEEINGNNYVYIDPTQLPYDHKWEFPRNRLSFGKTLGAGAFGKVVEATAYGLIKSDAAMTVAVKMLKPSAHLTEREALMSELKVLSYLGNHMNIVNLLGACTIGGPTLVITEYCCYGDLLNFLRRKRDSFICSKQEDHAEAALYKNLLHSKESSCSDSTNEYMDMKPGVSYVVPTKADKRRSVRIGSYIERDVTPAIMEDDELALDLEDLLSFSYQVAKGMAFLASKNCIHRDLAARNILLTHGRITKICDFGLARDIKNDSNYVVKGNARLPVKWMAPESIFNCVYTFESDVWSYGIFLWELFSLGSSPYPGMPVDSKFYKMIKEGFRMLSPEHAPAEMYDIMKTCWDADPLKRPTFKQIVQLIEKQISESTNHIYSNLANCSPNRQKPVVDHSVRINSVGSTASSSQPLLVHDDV

[22] = system: Receptor-type tyrosine-protein kinase FLT3 (Homo sapiens), P36888 [N841I]; settings: Compound concentration 100.0 nM
[23] = target: Serine/threonine-protein kinase DCLK2 (Homo sapiens) (UniProt Q8N568); settings: Compound concentration 100.0 nM
[24] = target: Cytoplasmic tyrosine-protein kinase BMX (Homo sapiens) (UniProt P51813); settings: Compound concentration 100.0 nM
Chain of Cytoplasmic tyrosine-protein kinase BMX (Homo sapiens) (P51813 whole entry): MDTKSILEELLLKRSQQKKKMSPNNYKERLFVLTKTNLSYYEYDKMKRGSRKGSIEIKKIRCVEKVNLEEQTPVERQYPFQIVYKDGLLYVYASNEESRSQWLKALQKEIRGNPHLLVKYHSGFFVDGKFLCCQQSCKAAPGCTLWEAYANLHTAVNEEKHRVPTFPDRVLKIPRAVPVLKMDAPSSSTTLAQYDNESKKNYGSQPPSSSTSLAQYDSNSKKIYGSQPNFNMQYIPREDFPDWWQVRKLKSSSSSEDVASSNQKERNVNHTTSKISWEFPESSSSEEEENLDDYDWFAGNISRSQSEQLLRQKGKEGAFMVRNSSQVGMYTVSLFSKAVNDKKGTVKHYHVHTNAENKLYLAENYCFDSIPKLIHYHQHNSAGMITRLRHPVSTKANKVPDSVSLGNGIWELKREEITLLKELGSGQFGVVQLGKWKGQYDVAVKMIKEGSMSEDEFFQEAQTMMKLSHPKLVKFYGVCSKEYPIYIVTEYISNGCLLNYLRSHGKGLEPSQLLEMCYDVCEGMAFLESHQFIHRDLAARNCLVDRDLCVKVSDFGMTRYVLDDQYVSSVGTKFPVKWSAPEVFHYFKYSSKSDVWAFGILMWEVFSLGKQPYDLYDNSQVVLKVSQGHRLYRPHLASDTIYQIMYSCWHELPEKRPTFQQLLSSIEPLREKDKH

[25] = system: Proto-oncogene tyrosine-protein kinase receptor Ret (Homo sapiens), P07949 [M918T]; settings: Compound concentration 100.0 nM
[26] = target: Mitogen-activated protein kinase kinase kinase kinase 3 (Homo sapiens) (UniProt Q8IVH8); settings: Compound concentration 100.0 nM
[27] = target: AP2-associated protein kinase 1 (Homo sapiens) (UniProt Q2M2I8); settings: Compound concentration 100.0 nM
[28] = target: Vascular endothelial growth factor receptor 3 (Homo sapiens) (UniProt P35916); settings: Compound concentration 100.0 nM
[29] = target: Tyrosine-protein kinase Blk (Homo sapiens) (UniProt P51451); settings: Compound concentration 100.0 nM
Chain of Tyrosine-protein kinase Blk (Homo sapiens) (P51451 2-505 limits assumed): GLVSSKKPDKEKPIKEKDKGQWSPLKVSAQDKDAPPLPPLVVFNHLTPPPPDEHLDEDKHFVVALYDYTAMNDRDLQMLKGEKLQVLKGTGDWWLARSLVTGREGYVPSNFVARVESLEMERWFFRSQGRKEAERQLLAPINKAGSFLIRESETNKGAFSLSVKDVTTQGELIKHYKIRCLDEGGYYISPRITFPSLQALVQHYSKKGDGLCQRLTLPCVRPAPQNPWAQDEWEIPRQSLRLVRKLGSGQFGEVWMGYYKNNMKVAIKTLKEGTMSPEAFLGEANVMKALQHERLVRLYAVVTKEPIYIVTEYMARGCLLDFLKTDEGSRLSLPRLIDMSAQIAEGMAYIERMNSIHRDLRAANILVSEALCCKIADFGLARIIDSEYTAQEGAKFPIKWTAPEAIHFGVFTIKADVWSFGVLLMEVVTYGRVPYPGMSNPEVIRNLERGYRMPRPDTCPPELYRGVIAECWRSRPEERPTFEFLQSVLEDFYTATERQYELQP

[30] = system: Mast/stem cell growth factor receptor Kit (Homo sapiens), P10721 [V559D,T670I]; settings: Compound concentration 100.0 nM
Chain of Mast/stem cell growth factor receptor Kit (Homo sapiens), P10721 [V559D,T670I] (P10721 whole entry V559D/T670I, canonical isoform): as the sequence (P10721 whole entry) above, with V559D, T670I counted along it

[31] = target: Casein kinase I isoform gamma-2 (Homo sapiens) (UniProt P78368); settings: Compound concentration 100.0 nM
[32] = system: Tyrosine-protein kinase ABL1 (Homo sapiens), P00519 [H396P]; settings: Compound concentration 100.0 nM
[33] = target: Activin receptor type-1B (Homo sapiens) (UniProt P36896); settings: Compound concentration 100.0 nM
[34] = system: Phosphatidylinositol 4,5-bisphosphate 3-kinase catalytic subunit alpha isoform (Homo sapiens), P42336 [H1047L]; settings: Compound concentration 100.0 nM
[35] = target: Calcium-dependent protein kinase 1 (Plasmodium falciparum) (UniProt P62344); settings: Compound concentration 100.0 nM
[36] = system: ALK tyrosine kinase receptor (Homo sapiens), Q9UM73 [L1196M]; settings: Compound concentration 100.0 nM
[37] = target: Tyrosine-protein kinase Lck (Homo sapiens) (UniProt P06239); settings: Compound concentration 100.0 nM
[38] = target: Mitogen-activated protein kinase 13 (Homo sapiens) (UniProt O15264); settings: Compound concentration 100.0 nM
[39] = target: Serine/threonine-protein kinase tousled-like 1 (Homo sapiens) (UniProt Q9UKI8); settings: Compound concentration 100.0 nM
[40] = target: Serine/threonine-protein kinase Nek4 (Homo sapiens) (UniProt P51957); settings: Compound concentration 100.0 nM
Chain of Serine/threonine-protein kinase Nek4 (Homo sapiens) (P51957 whole entry, looked up): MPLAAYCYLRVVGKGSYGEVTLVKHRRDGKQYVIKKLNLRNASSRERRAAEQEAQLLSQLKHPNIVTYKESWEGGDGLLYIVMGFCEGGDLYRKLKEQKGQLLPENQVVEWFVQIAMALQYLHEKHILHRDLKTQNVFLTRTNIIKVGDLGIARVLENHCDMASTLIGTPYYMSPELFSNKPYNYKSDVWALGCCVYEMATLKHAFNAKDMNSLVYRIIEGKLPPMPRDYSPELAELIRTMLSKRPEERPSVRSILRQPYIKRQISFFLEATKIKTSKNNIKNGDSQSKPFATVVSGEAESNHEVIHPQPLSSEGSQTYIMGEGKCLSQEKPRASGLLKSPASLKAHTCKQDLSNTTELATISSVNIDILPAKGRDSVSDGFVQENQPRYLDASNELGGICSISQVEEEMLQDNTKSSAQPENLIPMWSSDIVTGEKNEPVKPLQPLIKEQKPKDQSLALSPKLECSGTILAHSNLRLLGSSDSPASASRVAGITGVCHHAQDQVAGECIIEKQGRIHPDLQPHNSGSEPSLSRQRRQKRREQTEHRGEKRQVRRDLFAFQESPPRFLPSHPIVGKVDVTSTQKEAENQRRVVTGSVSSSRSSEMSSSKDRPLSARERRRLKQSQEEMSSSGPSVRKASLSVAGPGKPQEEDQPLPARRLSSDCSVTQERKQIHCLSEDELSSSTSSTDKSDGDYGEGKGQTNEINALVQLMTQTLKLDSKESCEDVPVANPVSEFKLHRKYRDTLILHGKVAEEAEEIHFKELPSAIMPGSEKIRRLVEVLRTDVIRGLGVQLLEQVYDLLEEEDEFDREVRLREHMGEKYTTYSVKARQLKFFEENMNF

[41] = target: Serine/threonine-protein kinase 32B (Homo sapiens) (UniProt Q9NY57); settings: Compound concentration 100.0 nM
[42] = target: Receptor tyrosine-protein kinase erbB-3 (Homo sapiens) (UniProt P21860); settings: Compound concentration 100.0 nM
[43] = target: Tyrosine-protein kinase HCK (Homo sapiens) (UniProt P08631); settings: Compound concentration 100.0 nM
[44] = target: 5-hydroxytryptamine receptor 3A (Homo sapiens) (UniProt P46098); settings: Compound concentration 10.0 uM
[45] = target: Serine/threonine-protein kinase B-raf (Homo sapiens) (UniProt P15056); settings: Compound concentration 100.0 nM
Chain of Serine/threonine-protein kinase B-raf (Homo sapiens) (P15056 whole entry): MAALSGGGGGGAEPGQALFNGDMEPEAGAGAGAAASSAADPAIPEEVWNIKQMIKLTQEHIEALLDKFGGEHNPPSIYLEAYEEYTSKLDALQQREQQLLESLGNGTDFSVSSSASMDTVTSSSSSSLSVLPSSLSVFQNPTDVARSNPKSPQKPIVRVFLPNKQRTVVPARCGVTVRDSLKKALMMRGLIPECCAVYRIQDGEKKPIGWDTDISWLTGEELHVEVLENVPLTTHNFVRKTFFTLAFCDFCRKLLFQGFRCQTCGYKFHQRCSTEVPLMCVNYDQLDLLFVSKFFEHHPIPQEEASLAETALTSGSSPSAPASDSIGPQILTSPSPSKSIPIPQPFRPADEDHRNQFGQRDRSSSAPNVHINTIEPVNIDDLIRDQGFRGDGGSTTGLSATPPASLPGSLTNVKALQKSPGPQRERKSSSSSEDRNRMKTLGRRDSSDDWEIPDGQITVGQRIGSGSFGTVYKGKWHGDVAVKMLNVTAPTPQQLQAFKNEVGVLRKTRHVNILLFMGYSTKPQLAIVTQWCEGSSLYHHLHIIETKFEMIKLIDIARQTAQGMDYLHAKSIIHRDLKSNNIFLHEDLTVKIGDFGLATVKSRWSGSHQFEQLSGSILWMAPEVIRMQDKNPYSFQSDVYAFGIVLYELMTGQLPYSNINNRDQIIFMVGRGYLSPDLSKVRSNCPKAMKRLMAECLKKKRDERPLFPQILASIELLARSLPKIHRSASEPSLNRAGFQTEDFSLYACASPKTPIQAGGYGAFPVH

Molecule `O=C(NCCCC1CCCCC1)c1ccc(CNC(=O)c2cnn(-c3ccccc3)c2C(F)(F)F)cc1` [SR-321] has a residual activity [1] of 100%, a residual activity [2] of 100% and a residual activity [3] of 100%. For the same molecule, the residual activity [4] was 68%, the residual activity [5] was 100% and the residual activity [6] was 77%. The residual activity [7] was 100%, the residual activity [8] was 100% and the residual activity [9] was 100%. For the same molecule, the residual activity [10] was 100%, the residual activity [11] was 100% and the residual activity [12] was 100%. It also gave a residual activity [13] of 100%, a residual activity [14] of 93% and a residual activity [15] of 96%. The residual activity [16] was 100%, the residual activity [17] was 92% and the residual activity [18] was 87%. The inhibition [19] was 19.4%, the residual activity [20] was 100% and the residual activity [21] was 100%. For the same molecule, the residual activity [22] was 88%, the residual activity [23] was 100% and the residual activity [24] was 75%. It also gave a residual activity [25] of 100%, a residual activity [26] of 78% and a residual activity [27] of 100%. For the same molecule, the residual activity [28] was 100%, the residual activity [29] was 100% and the residual activity [30] was 100%. The residual activity [31] was 96%, the residual activity [32] was 98% and the residual activity [33] was 100%. The residual activity [34] was 86%, the residual activity [35] was 100% and the residual activity [36] was 100%. For the same molecule, the residual activity [37] was 100%, the residual activity [38] was 100% and the residual activity [39] was 100%. For the same molecule, the residual activity [40] was 100%, the residual activity [41] was 100% and the residual activity [42] was 100%. For the same molecule, the residual activity [43] was 100%, the inhibition [44] was 5.72% and the residual activity [45] was 100%.
`Nc1c(C(=O)NCc2ccc(C(=O)NCCCC3CCCCC3)cc2)cnn1-c1ccccc1` [SR-318] showed a residual activity [1] of 100%, a residual activity [2] of 100% and a residual activity [3] of 100%. The residual activity [4] was 100%, the residual activity [5] was 79% and the residual activity [6] was 95%. The residual activity [7] was 100%, the residual activity [8] was 92% and the residual activity [9] was 94%. The residual activity [10] was 74%, the residual activity [11] was 97% and the residual activity [12] was 100%. For the same molecule, the residual activity [13] was 92%, the residual activity [14] was 81% and the residual activity [15] was 100%. It also gave a residual activity [16] of 98%, a residual activity [17] of 100% and a residual activity [18] of 90%. For the same molecule, the inhibition [19] was 41.2%, the residual activity [20] was 56% and the residual activity [21] was 70%. The residual activity [22] was 95%, the residual activity [23] was 100% and the residual activity [24] was 100%. The residual activity [25] was 100%, the residual activity [26] was 100% and the residual activity [27] was 100%. The residual activity [28] was 100%, the residual activity [29] was 81% and the residual activity [30] was 98%. For the same molecule, the residual activity [31] was 94%, the residual activity [32] was 80% and the residual activity [33] was 100%. For the same molecule, the residual activity [34] was 100%, the residual activity [35] was 86% and the residual activity [36] was 100%. It also gave a residual activity [37] of 82%, a residual activity [38] of 100% and a residual activity [39] of 77%. It also gave a residual activity [40] of 100%, a residual activity [41] of 100% and a residual activity [42] of 44%. It also gave a residual activity [43] of 100%, an inhibition [44] of -0.42% and a residual activity [45] of 90%.
